Values of other authors, collected in patent US9750827B2, “Near-infrared dye-conjugated hyaluronic acid derivative and contrast agent for optical imaging including them” (CANON KABUSHIKI KAISHA, priority 2013, dated 2017).

Conditions: known in the art

CC1(C)C(/C=C/C=C/C=C/C=C2/N(CCCCS(=O)(=O)[O-])c3ccc4ccccc4c3C2(C)C)=[N+](CCCCS(=O)(=O)[O-])c2ccc3ccccc3c21.[Na+] [ICG, indocyanine green]
half-life in blood: about several minutes
